Experiments:
Format in all cases: cell-based, female Balb/c mice
[1] = tested on: conA-stimulated T cell proliferation (spleen cells); assay: Assay A: Suppression of Murine Mitogen-Stimulated Proliferation; conditions: conA 1 ug/ml, 3 days culture, MTT readout, n = 2
Description: Assay A: Suppression of Murine Mitogen-Stimulated Proliferation
It is known that lymphocyte activation can be polyclonally stimulated by plant lectins and other mitogenic substances that induce blast transformation and mitosis. The plant lectin concanavalin A (conA) preferentially induces activation and proliferation of T lymphocytes. Exposure of T cells to conA results in polyclonal T cell activation, and this response can be used to determine the in vitro index of immunomodulatory effects of test compounds on pan-T cell activation. Spleen cells were harvested aseptically from female Balb/c mice, and cells were extruded by compression in phosphate buffered saline (pH 7.0). […] The remaining cells were pelleted, resuspended in medium, filtered through a cotton plug to remove debris, and the leukocytes were then counted. […] Inhibition of conA-stimulated T cell proliferation was measured using a colorimetric indicator of cell growth and proliferation, MTT [3-(4,5-dimethylthiazol-2-yl)-2 diphenyltetrazolium bromide; 100 μl of a 1 mg/ml solution per well, SIGMA] […] Light absorbance was measured at a test wavelength of 570 nm and a reference wavelength of 650 nm using a spectrophotometer. […]

[2] = in vitro; conditions: spleen cell leukocytes
Description: (§1) Measurement of drug-induced cellular cytotoxicity was determined after 48 hours of cell culture with and without conA and with and without test compound or vehicle control. All cell preparations and assay conditions were identical to those described in Assay A. A fluorescence based assay was used to measure cell viability using the carboxyfluorescein derivative 2'-7'-biscarboxyethyl-5 (6)-carboxyfluorecein (BCECF) as a vital dye [Leeder, J. S., Dosch, H. M., Harper, P. A., Lam, P. and S. P. Spielberg, 1989. Anal. Biochem. 177, 364-372]. The membrane permeant, nonfluorescent ester derivitive, BCECF-AM (100 μl of a 2 ug/ml solution in phosphate buffered saline, pH 7.0, Molecular Probes, Eugene, OR) was added to each cell culture and incubated at 37° C. for 30 min. […] The cells were washed and concentrated on the well membrane under low vacuum, and cell associated fluorescence was measured by front surface fluorometry (485/535 nM) in the Screen Machine (Baxter) using an automated protocol. Probit analysis was used to determine viability as a percentage of relative fluorescence units (RFU) compared to control (cells and medium). The dose of test compound that induced at least 50% cellular toxicity, i.e., a 50% reduction in RFU compared to unstimulated control cells, was recorded.

[3] = tested on: spleen cell leukocytes (cell viability); assay: in vitro; conditions: 48 h
Description: as §1

Structure (SMILES)	EC50 ([1]; Mus musculus, T-cell, 72 h) [µM]	CC50 at 48 h [2] [µM]	EC50 [1] [µM]	CC50 [3] [µM]
COc1ccc(CCN(C)CC(O)CC(C#N)(c2ccc(OC)c(OC)c2)C(C)C)cc1OC (racemic) [Example 1-A, α-[3-[[2-(3,4-dimethoxyphenyl)ethyl]methylamino]-2-hydroxypropyl]-3,4-dimethoxy-α-(1-methylethyl)benzeneacetonitrile]	12.9 ± 5.75	60	–	–
COc1ccc(CCN(C)CC(O)CC(C#N)(c2ccc(OC)c(OC)c2)C(C)C)cc1OC (racemic) [Example 1-B, α-[3-[[2-(3,4-dimethoxyphenyl)ethyl]methylamino]-2-hydroxypropyl]-3,4-dimethoxy-α-(1-methylethyl)benzeneacetonitrile]	–	–	17.9 ± 8.16	60
